Experimental data published in patent US20100113421A1, “NON-NUCLEOSIDE REVERSE TRANSCRIPTASE INHIBITORS” (priority 2006, published 2010).

These compounds were tested on HIV strain containing the Y181C mutation (assay: Spread assay, Y181C mutant strain). Conditions: Human immunodeficiency virus 1; spread assay, 10% FBS, Y181C mutant strain; read-out: CIC95.
Type: cell-based
Experimental: Assays for the inhibition of acute HIV-1 infection of T-lymphoid cells (alternatively referred to herein as the “spread assay”) were conducted in accordance with Vacca, J. P. et al., Proc. Natl. Acad. Sci. USA 1994, 91: 4096. The assays (using 10% FBS) tested for inhibition of wild type HIV-1 and of HIV strains containing the Y181C or K103N mutation. […] (Note that the compound of Example 6 was tested only up to a 833 nM concentration and the CIC95 value was determined to be >833 nM. The compound of Example 78 was not tested in the Y1818C assay.) The compounds of Examples 1 to 119 (including Examples 70A and 70B) had CIC95 values of less than 1000 nanomolar in the assay employing the K103N mutant strain. In an analogous assay employing a mutant strain containing both the K103N and Y181C mutations, the compounds of Examples 70A, 70B and 78-115 had CIC95 values of less than 1000 nanomolar.
With `Cc1c(C(=O)N(C)Cc2ccccc2)[nH]c(C(N)=O)c1S(=O)(=O)c1cc(F)cc(Cl)c1` [Example 28, N-benzyl-N,3-dimethyl-4-(3-chloro-5-fluorophenylsulfonyl)-1H-pyrrole-2,5-dicarboxamide] the IC95 was under 8 µM.
`Cc1c(C(=O)N(C)Cc2ccccc2F)[nH]c(C(N)=O)c1S(=O)(=O)c1cc(F)cc(Cl)c1` [Example 29, N-(2-fluorobenzyl)-N,3-dimethyl-4-(3-chloro-5-fluorophenylsulfonyl)-1H-pyrrole-2,5-dicarboxamide] gave an IC95 of under 8 µM.
`Cc1c(C(=O)N(C)Cc2ccccc2Cl)[nH]c(C(N)=O)c1S(=O)(=O)c1cc(F)cc(Cl)c1` [Example 30, N-(2-chlorobenzyl)-N,3-dimethyl-4-(3-chloro-5-fluorophenylsulfonyl)-1H-pyrrole-2,5-dicarboxamide] showed an IC95 of under 8 µM.
`Cc1c(C(=O)N(C)Cc2ccc(Cl)cc2F)[nH]c(C(N)=O)c1S(=O)(=O)c1cc(F)cc(Cl)c1` [Example 31, N-(4-chloro-2-fluorobenzyl)-N,3-dimethyl-4-(3-chloro-5-fluorophenylsulfonyl)-1H-pyrrole-2,5-dicarboxamide] showed an IC95 of under 8 µM.
In the case of `Cc1c(C(=O)N(C)Cc2ccccc2)[nH]c(C(N)=O)c1S(=O)(=O)c1cc(Cl)cc(Cl)c1` [Example 32, N-benzyl-N,3-dimethyl-4-(3,5-dichlorophenylsulfonyl)-1H-pyrrole-2,5-dicarboxamide], the IC95 is reported as under 8 µM.
`Cc1c(C(=O)N(C)Cc2ccccc2F)[nH]c(C(N)=O)c1S(=O)(=O)c1cc(Cl)cc(Cl)c1` [Example 33, N-(2-fluorobenzyl)-N,3-dimethyl-4-(3,5-dichlorophenylsulfonyl)-1H-pyrrole-2,5-dicarboxamide] gave an IC95 of under 8 µM.
`Cc1c(C(=O)N(C)Cc2ccccc2Cl)[nH]c(C(N)=O)c1S(=O)(=O)c1cc(Cl)cc(Cl)c1` [Example 34, N-(2-chlorobenzyl)-N,3-dimethyl-4-(3,5-dichlorophenylsulfonyl)-1H-pyrrole-2,5-dicarboxamide] was tested, and the IC95 was under 8 µM.
In the case of `Cc1c(C(=O)N(C)Cc2ccc(Cl)cc2F)[nH]c(C(N)=O)c1S(=O)(=O)c1cc(Cl)cc(Cl)c1` [Example 35, N-(4-chloro-2-fluorobenzyl)-N,3-dimethyl-4-(3,5-dichlorophenylsulfonyl)-1H-pyrrole-2,5-dicarboxamide], the IC95 is reported as under 8 µM.
Work on `COc1cccc(CN(C)C(=O)c2[nH]c(C(N)=O)c(S(=O)(=O)c3ccccc3)c2C)c1` [Example 36, N-(3-methoxyobenzyl)-N,3-dimethyl-4-(phenylsulfonyl)-1H-pyrrole-2,5-dicarboxamide] yielded an IC95 of under 8 µM.
`Cc1c(C(=O)N(C)Cc2ccsc2)[nH]c(C(N)=O)c1S(=O)(=O)c1ccccc1` [Example 38, N,3-dimethyl-4-(phenylsulfonyl)-N-(3-thienylmethyl)-1H-pyrrole-2,5-dicarboxamide] gave an IC95 of under 8 µM.
With `Cc1c(C(=O)N(C)Cc2ccncc2Cl)[nH]c(C(N)=O)c1S(=O)(=O)c1ccccc1` [Example 39, N-[(3-chloro-4-pyridinyl)methyl]-N,3-dimethyl-4-(phenylsulfonyl)-1H-pyrrole-2,5-dicarboxamide] the IC95 was under 8 µM.
With `Cc1cc(C)cc(S(=O)(=O)c2c(C(N)=O)[nH]c(C(=O)N(C)Cc3ccc4ncccc4c3)c2C)c1` [Example 40, 4-[(3,5-Dimethylphenyl)sulfonyl]-N,3-dimethyl-N-(6-quinolinylmethyl)-1H-pyrrole-2,5-dicarboxamide] the IC95 was under 8 µM.
Work on `Cc1c(C(=O)N(C)Cc2cc3cccnc3cc2Cl)[nH]c(C(N)=O)c1S(=O)(=O)c1ccccc1` [Example 41, N-[(7-Chloro-6-quinolinyl)methyl]-N,3-dimethyl-4-(phenylsulfonyl)-1H-pyrrole-2,5-dicarboxamide] yielded an IC95 of under 8 µM.
`Cc1c(C(=O)N(C)Cc2ccc3ncccc3c2Cl)[nH]c(C(N)=O)c1S(=O)(=O)c1ccccc1` [Example 42, N-[(5-Chloro-6-quinolinyl)methyl]-N,3-dimethyl-4-(phenylsulfonyl)-1H-pyrrole-2,5-dicarboxamide] was tested, and the IC95 was under 8 µM.
`Cc1c(C(=O)N(C)Cc2ccc3ncccc3c2)[nH]c(C(N)=O)c1S(=O)(=O)c1ccccc1` [Example 43] gave an IC95 of under 8 µM.
With `Cc1cccc(S(=O)(=O)c2c(C(N)=O)[nH]c(C(=O)N(C)Cc3ccc4ncccc4c3)c2C)c1` [Example 44] the IC95 was under 8 µM.
Work on `Cc1c(C(=O)N(C)Cc2ccc3ncccc3c2)[nH]c(C(N)=O)c1S(=O)(=O)c1cccc(F)c1` [Example 45] yielded an IC95 of under 8 µM.
`Cc1c(C(=O)N(C)Cc2ccc3ncccc3c2)[nH]c(C(N)=O)c1S(=O)(=O)c1cccc(C(F)(F)F)c1` [Example 46, N,3-dimethyl-N-(6-quinolinylmethyl)-4-{[3-(trifluoromethyl)phenyl]sulfonyl}-1H-pyrrole-2,5-dicarboxamide] showed an IC95 of under 8 µM.
With `Cc1cc(C)cc(S(=O)(=O)c2c(C(N)=O)[nH]c(C(=O)N(C)Cc3ccc4ncccc4c3Cl)c2C)c1` [Example 47, N-[(5-chloro-6-quinolinyl)methyl]-4-[(3,5-dimethylphenyl)sulfonyl]-N,3-dimethyl-1H-pyrrole-2,5-dicarboxamide] the IC95 was under 8 µM.
Work on `Cc1cc(C)cc(S(=O)(=O)c2c(C(N)=O)[nH]c(C(=O)N(C)Cc3cc4cccnc4cc3Cl)c2C)c1` [Example 48, N-[(7-chloro-6-quinolinyl)methyl]-4-[(3,5-dimethylphenyl)sulfonyl]-N,3-dimethyl-1H-pyrrole-2,5-dicarboxamide] yielded an IC95 of under 8 µM.
With `Cc1c(C(=O)N(C)Cc2ccc3ncccc3c2Cl)[nH]c(C(N)=O)c1S(=O)(=O)c1cc(F)cc(F)c1` [Example 49, N-[(5-chloro-6-quinolinyl)methyl]-4-[(3,5-difluorophenyl)sulfonyl]-N,3-dimethyl-1H-pyrrole-2,5-dicarboxamide] the IC95 was under 8 µM.
Compound `Cc1c(C(=O)N(C)Cc2cc3cccnc3cc2Cl)[nH]c(C(N)=O)c1S(=O)(=O)c1cc(F)cc(F)c1` [Example 50, N-[(7-chloro-6-quinolinyl)methyl]-4-[(3,5-difluorophenyl)sulfonyl]-N,3-dimethyl-1H-pyrrole-2,5-dicarboxamide] has an IC95 of under 8 µM.
For `Cc1c(C(=O)N(C)Cc2ccc3ncccc3c2)[nH]c(C(N)=O)c1S(=O)(=O)c1cc(F)cc(Cl)c1` [Example 51, 4-[(3-chloro-5-fluorophenyl)sulfonyl]-N,3-dimethyl-N-(6-quinolinylmethyl)-1H-pyrrole-2,5-dicarboxamide], the IC95 was under 8 µM.
Work on `Cc1c(C(=O)N(C)Cc2ccc3ncccc3c2Cl)[nH]c(C(N)=O)c1S(=O)(=O)c1cc(F)cc(Cl)c1` [Example 52, 4-[(3-chloro-5-fluorophenyl)sulfonyl]-N-[(5-chloro-6-quinolinyl)methyl]-N,3-dimethyl-1H-pyrrole-2,5-dicarboxamide] yielded an IC95 of under 8 µM.
`Cc1c(C(=O)N(C)Cc2cc3cccnc3cc2Cl)[nH]c(C(N)=O)c1S(=O)(=O)c1cc(F)cc(Cl)c1` [Example 53, 4-[(3-chloro-5-fluorophenyl)sulfonyl]-N-[(7-chloro-6-quinolinyl)methyl]-N,3-dimethyl-1H-pyrrole-2,5-dicarboxamide] gave an IC95 of under 8 µM.
In the case of `Cc1c(C(=O)N(C)Cc2ccc3ncccc3c2)[nH]c(C(N)=O)c1S(=O)(=O)c1cc(Cl)cc(Cl)c1` [Example 54, 4-[(3,5-dichlorophenyl)sulfonyl]-N,3-dimethyl-N-(6-quinolinylmethyl)-1H-pyrrole-2,5-dicarboxamide], the IC95 is reported as under 8 µM.
`Cc1c(C(=O)N(C)Cc2ccc3ncccc3c2Cl)[nH]c(C(N)=O)c1S(=O)(=O)c1cc(Cl)cc(Cl)c1` [Example 55, N-[(5-chloro-6-quinolinyl)methyl]-4-[(3,5-dichlorophenyl)sulfonyl]-N,3-dimethyl-1H-pyrrole-2,5-dicarboxamide] was tested, and the IC95 was under 8 µM.
In the case of `Cc1c(C(=O)N(C)Cc2cc3cccnc3cc2Cl)[nH]c(C(N)=O)c1S(=O)(=O)c1cc(Cl)cc(Cl)c1` [Example 56, N-[(7-chloro-6-quinolinyl)methyl]-4-[(3,5-dichlorophenyl)sulfonyl]-N,3-dimethyl-1H-pyrrole-2,5-dicarboxamide], the IC95 is reported as under 8 µM.
For `Cc1c(C(=O)N(C)Cc2ccc3ncccc3c2)[nH]c(C(N)=O)c1S(=O)(=O)c1cc(Cl)cc(C#N)c1` [Example 57], the IC95 was under 8 µM.
`CC(C)c1c(C(=O)N(C)Cc2ccccc2)[nH]c(C(N)=O)c1S(=O)(=O)c1ccccc1` [Example 58, N-Benzyl-3-isopropyl-N-methyl-4-(phenylsulfonyl)-1H-pyrrole-2,5-dicarboxamide] showed an IC95 of under 8 µM.
`CCc1c(C(=O)N(C)Cc2ccc(Cl)cc2Cl)[nH]c(C(N)=O)c1S(=O)(=O)c1ccccc1` [Example 59, N-(2,4-dichlorobenzyl)-3-ethyl-N-methyl-4-(phenylsulfonyl)-1H-pyrrole-2,5-dicarboxamide] gave an IC95 of under 8 µM.
For `CCc1c(C(=O)N(C)Cc2ccc3ncccc3c2)[nH]c(C(N)=O)c1S(=O)(=O)c1ccccc1` [Example 60, 3-ethyl-N-methyl-4-(phenylsulfonyl)-N-(6-quinolinylmethyl)-1H-pyrrole-2,5-dicarboxamide], the IC95 was under 8 µM.
In the case of `CC(C)c1c(C(=O)N(C)Cc2ccccc2F)[nH]c(C(N)=O)c1S(=O)(=O)c1ccccc1` [Example 61, N-(2-fluorobenzyl)-3-isopropyl-N-methyl-4-(phenylsulfonyl)-1H-pyrrole-2,5-dicarboxamide], the IC95 is reported as under 8 µM.
In the case of `CC(C)c1c(C(=O)N(C)Cc2ccc(Cl)cc2F)[nH]c(C(N)=O)c1S(=O)(=O)c1ccccc1` [Example 62, N-(4-chloro-2-fluorobenzyl)-3-isopropyl-N-methyl-4-(phenylsulfonyl)-1H-pyrrole-2,5-dicarboxamide], the IC95 is reported as under 8 µM.
